Test results reported in patent publication US7781565B2 (priority 2006, dated 2010).
Entries after “also recorded” stand apart in the source; their conditions may differ.

test system: NCI-60 cell lines; format: cell-based, human

Substance | Cell Line the peptide is associated with (peptide recovered from phage library selection on this NCI-60 cell line) | Cell Line (NCI-60 cell line the peptide and its motif are associated with) | Cell Line with which the peptide (and its tripeptide motif) is associated | Cell Line (NCI-60 cell line the peptide is associated with)
WAGLSRP | SN12C Renal |  |  | 
YLGLGGL |  | DU-145 Prostate |  | 
SRGSTAG |  |  | H322-Lung | 
TGGSLGA |  |  | EKVX-Lung | 
GASLTGD |  |  | H460-Lung | 
GVSISDG | SN12C Renal |  |  | 
SYMGAAS | SN12C Renal |  |  | 
GPSSAVE |  | OVCAR-5 Ovarian |  | 
RGSPAAA | MDA-MB-435-Breast |  |  | 
GYLGRLP | NCI/ADR-RES Breast |  |  | 
MGPSARW | BT-549 Breast |  |  | 
NLRVGAE |  | OVCAR-4 Ovarian |  | 
LVSYSAV | RXF393 Renal |  |  | 
LGSSGLR | RXF393 Renal |  |  | 
TRGAVFG |  | SK-MEL-5 Melanoma |  | 
VAWRGVS |  |  | A549-Lung | 
AGLSGSQ |  |  | RPMI-8226-Leukemia | 
HSGVSHG |  |  | RPMI-8226-Leukemia | 
APGRLGP |  | OVCAR-4 Ovarian |  | 
PWYDGSV |  | OVCAR-3 Ovarian |  | 
PNSAGSV | SN12C Renal |  |  | 
GPSFDAK | RXF393 Renal |  |  | 
NLADGSV |  |  | H322-Lung | 

Substance | Cell Line the peptide is associated with (peptide recovered from phage library selection on this NCI-60 cell line) | Cell Line (NCI-60 cell line the peptide and its motif are associated with) | Cell Line with which the peptide (and its tripeptide motif) is associated | Cell Line (NCI-60 cell line the peptide is associated with)
GRVTLES |  | OVCAR-3 Ovarian |  | 
NVSRAVG |  | OVCAR-8 Ovarian |  | 
PRSSGPM | RXF393 Renal |  |  | 
VEYAAGR |  |  | CCRF-CEM Leukemia | 
GLGGGGS |  |  |  | SF-268 CNS
SGVRLTG |  |  |  | HT-29 Colon
VGAVYFL |  |  | H322-Lung | 
RARTGGS |  |  |  | SNB-75 CNS
AGSIALR |  |  | HL-60-Leukemia | 
GPFRAVP |  |  |  | COLO-205-Colon
RRVSLVA |  |  | CCRF-CEM Leukemia | 
AVFRASR | CAIK-1 Renal |  |  | 
GVRSITL | ACHN Renal |  |  | 
REVPGLR |  |  |  | SNB-19 CNS; also recorded: SF-539 CNS
HIGLGGL |  |  |  | SF-295 CNS
GAGGVDV |  | 786-0 Renal |  | 
KRESGLG |  |  | Hop-62-Lung | 
SLGGRTF |  |  |  | SNB-75 CNS
GDRAVGL | UO31 Renal |  |  | 
RVAAGGL | T-47D Breast |  |  | 
FGSSNRS |  |  |  | SF-268 CNS
FLRGVEL |  | SK-OV-3-3 Ovarian |  | 
MDGVSTE | A498 Renal |  |  | 

Substance | Cell Line the peptide is associated with (peptide recovered from phage library selection on this NCI-60 cell line) | Cell Line (NCI-60 cell line the peptide and its motif are associated with) | Cell Line with which the peptide (and its tripeptide motif) is associated | Cell Line (NCI-60 cell line the peptide is associated with)
GRLWWHT |  |  | Hop-92-Lung | 
LAGMRGS |  | UACC62 Melanoma |  | 
PGAVPGA |  |  |  | HT-29 Colon
AVRGVAR |  |  | HL-60-Leukemia | 
LSGSVLQ |  |  |  | HCT-116 Colon
PDRASDG |  |  | Hop-62-Lung | 
PRHRASQ |  | OVCAR-8 Ovarian |  | 
YFRARGS |  | 786-0 Renal |  | 
SLRSDGA |  |  |  | HCT-15 Colon
NMAGGQE |  | IGROV1 Ovarian |  | 
VTDGAGQ |  |  |  | SF-268 CNS
AAVWWAA |  | DU-145 Prostate |  | 
GGSQCDT |  |  | K-562-Leukemia | 
MITRGRL |  |  |  | HCT-15 Colon
LLRSVGY |  | DU-145 Prostate |  | 
RIDAGGG |  |  |  | SW620-Colon
TVGSGCL |  |  |  | HCT-116 Colon
ARNAASP |  |  | A549-Lung | 
EVGGGLT |  |  | CCRF-CEM Leukemia | 
YWFIGLG |  |  | EKVX-Lung | 
GAYRLVS |  |  | CCRF-CEM Leukemia | 
WSISGSV | MDA-MB-231 Breast |  |  | 
AGPSRGP |  | UACC 257 Melanoma |  | 

Substance | Cell Line the peptide is associated with (peptide recovered from phage library selection on this NCI-60 cell line) | Cell Line (NCI-60 cell line the peptide and its motif are associated with) | Cell Line with which the peptide (and its tripeptide motif) is associated | Cell Line (NCI-60 cell line the peptide is associated with)
GFYWLRS |  |  | Molt-4-Leukemia | 
FAASGVL |  | UACC 257 Melanoma |  | 
RASCVWR |  | DU-145 Prostate |  | 
SGGLHEG |  |  | SR Leukemia | 
YRALAGG | MDA-MB-435-Breast |  |  | 
GWGGGSA |  |  |  | MALME-3M Melanoma
GRGSFES |  |  | SR Leukemia | 
ARGNVRF | MDA-MB-231 Breast |  |  | 
HVKNGRV |  | SK-MEL-28 Melanoma |  | 
GRLRPFS | TK-10 Renal |  |  | 
PRAGGRW |  |  | EKVX-Lung | 
VRVSGLT |  | SK-MEL-5 Melanoma |  | 
VGAGRFT | MDA-MB-231 Breast |  |  | 
LGMGRGV | SN12C Renal |  |  | 
TRRGRLD | SN12C Renal |  |  | 
VFQRSSG |  |  | A549-Lung | 
PGVLREP | A498 Renal |  |  | 
GRLLAGG |  |  | Hop-92-Lung | 
KYYGLRR |  |  | RPMI-8226-Leukemia | 
VMPGSVV |  |  |  | SF-295 CNS
FGGSGRG |  |  |  | LOX-IMVI Melanoma
GLVKLRS | MCF-7 Breast |  |  | 
VLRAASR |  |  |  | HT-29 Colon

Substance | Cell Line the peptide is associated with (peptide recovered from phage library selection on this NCI-60 cell line) | Cell Line (NCI-60 cell line the peptide and its motif are associated with) | Cell Line with which the peptide (and its tripeptide motif) is associated | Cell Line (NCI-60 cell line the peptide is associated with)
CMLRSAT |  | SK-MEL-2 Melanoma |  | 
WRLGAVG |  |  |  | SW620-Colon
SVSGAGS |  | OVCAR-5 Ovarian |  | 
GGSPGVW |  | SK-MEL-5 Melanoma |  | 
LVSSSEP |  |  | HL-60-Leukemia | 
ERGVFVY | T-47D Breast |  |  | 
WGLVRHA |  |  |  | SF-268 CNS
LLVSLSS | RXF393 Renal |  |  | 
LKVRGVL |  |  |  | HT-29 Colon
GVLLWRP |  | UACC62 Melanoma |  | 
GVSIYDL | SN12C Renal |  |  | 
EVRSRGS |  |  | EKVX-Lung | 
DVETRGS |  |  | CCRF-CEM Leukemia | 
GVLTIGA | BT-549 Breast |  |  | 
GRGGSGY |  |  |  | HT-29 Colon
TLGVLVT | NCI/ADR-RES Breast |  |  | 
ARLRASR |  | PC3 Prostate |  | 
VGLGHWP |  |  | Hop-62-Lung | 
VMWVARG |  |  |  | KM-12C Colon
GSSGLLA | NCI/ADR-RES Breast |  |  | 
LAGSGSH |  |  | Molt-4-Leukemia | 
